Data as given in patent publication US20030206858A1, “Metal complex-containing pharmaceutical agents” (Schering AG, priority 1986, published 2003).

Test: 153Gd remaining in the rat 7 days after i.v. injection of GdDTPA/dimeglumine
Assay type: in vivo
Conditions: rats, one week after i.v. injection of GdDTPA; 10% calcium trisodium DTPA added to the contrast medium, versus no additive

## O=C([O-])CN(CCN(CC(=O)[O-])CC(=O)[O-])CCN(CC(=O)[O-])CC(=O)[O-].[Ca+2].[Na+].[Na+].[Na+] [calcium trisodium DTPA, Calcium-trisodium salt of DTPA]
  reduction of the gadolinium concentration in the bones: about 45%
  reduction of the portion of gadolinium remaining in the bodies: greater than 30%
